Assay results from US20230242552A1, “Nitrogen-Containing Heterocyclic Compound, Preparation Method Therefor and Use Thereof” (280 Bio, Inc, priority 2022, published 2023).

Experiments:
[1] = tested on: AGS (gastric cancer cell line with KRAS G12D mutation); test: Proliferation inhibition measured by CTG, AGS; format: cell-based; details: CellTiter Glo, 120 hours incubation
Experimental: (§1) NCI-H358 is a human non-small cell lung cancer cell line with KRAS G12C mutation; AGS is a gastric cancer cell line with KRAS G12D mutation; SW480 is a colon cancer cell lines with KRAS G12V mutation; A375 is a wild type malignant melanoma cell line. The proliferation inhibitory effect of the compounds on various mutations was evaluated by determining the proliferation inhibitory activity of the compounds on these cell lines.
(§2) The assay was conducted on either 384-well plates or 96-well plates. The procedures are as follows:
(§3) The cell suspensions were added to 384- or 96-well plates (384-well plate: 40 μL; 96-well plate: 100 μL) except for peripheral wells. The plates were incubated in a carbon dioxide incubator overnight. Prepared compounds (10 concentration gradients by serial 3-fold dilution) were added to the wells. The cell plates were incubated in a carbon dioxide incubator for 120 hours. CellTiter Glo reagent (384 well plate: 25 μL; 96 well plate: 100 μL) was added to the 384- or 96-well plates. The plates were shaken for 10 minutes away from light, and incubated for 10 minutes. The plates were read by EnVision system. Inhibition curves were plotted using XLFit and IC50 values were calculated. “IC50>10 μM” is denoted by “*”, “10 μM≥IC50>1 μM” is denoted by […] is denoted by “***”, “---” means no data.

[2] = tested on: A375 (wild type malignant melanoma cell line); test: Proliferation inhibition measured by CTG, A375; format: cell-based; details: Homo sapiens, A-375, 120 h, CellTiter Glo, 120 hours incubation
Experimental: as §1, §2, §3

[3] = tested on: SW480 (colon cancer cell lines with KRAS G12V mutation); test: Proliferation inhibition measured by CTG, SW480; format: cell-based; details: CellTiter Glo, 120 hours incubation
Experimental: as §1, §2, §3

[4] = tested on: NCI-H358 (KRAS G12C mutation); test: Proliferation inhibition measured by CTG, NCI-H358; format: cell-based, human; details: Homo sapiens, NCI-H358, 120 h, CellTiter Glo, 120 hours incubation
Experimental: as §1, §2, §3

Work on C[C@@H]1Cc2cncc(F)c2CN1c1nc(OC[C@@H]2CCCN2C)nc2c1CCN(c1cccc3cccnc13)C2 [Compound 32] yielded an IC50 ([1]; 120 h) of at most 1 µM, an IC50 [2] of at most 1 µM and an IC50 ([3]; Homo sapiens, SW480, 120 h) of at most 1 µM. It also gave an IC50 [4] of at most 1 µM.
With CC1Cc2cncc(F)c2CN1c1nc(OC[C@@H]2CCCN2C)nc2c1CCN(c1cccc3cccc(Cl)c13)C2 (single isomer, unassigned) [Compound 4-1] the IC50 [1] was at most 1 µM, the IC50 [2] was 1 to 10 µM and the IC50 [3] was 1 to 10 µM. It also gave an IC50 [4] of 1 to 10 µM.
With C[C@H]1Cc2cncc(F)c2CN1c1nc(OC[C@@H]2CCCCN2C)nc2c1CCN(c1cccc3cccc(F)c13)C2 [Compound 12] the IC50 ([1]; 120 h) was at most 1 µM, the IC50 [2] was at most 1 µM and the IC50 ([3]; Homo sapiens, SW480, 120 h) was at most 1 µM. The IC50 [4] was at most 1 µM.
